Measured values as given in paper PMC7377239, “Cardiovascular Effects of Polychlorinated Biphenyls and Their Major Metabolites” (Environmental Health Perspectives, 2020).
Where a name gives a salt, the structure may show the parent alone. Read-outs that look alike come from different tables or passages of the source.

Tests used:
[1] = tested on: iCell endothelial cells (human iPSC-derived ECs); assay: Tube formation (tubulogenesis) assay in iCell endothelial cells, 18 h; assay type: cell-based; settings: Homo sapiens, Endothelial cell, iPSC-EC tube formation, 18 hr; for activity at 0.1 µM: 0.10 µM; for minimal effective concentration: top concentration 100.00 µM
Summary of the method: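 Tube formation was measured by calcein AM imaging after overnight compound exposure (37°C, 0.5% DMSO vehicle) of human iPSC-derived ECs, 7,500/well, on reduced-growth-factor Geltrex in starvation medium. Vehicle-normalized data fitted to four-parameter logistic; POD set at one vehicle SD; without response, 100 μM taken as NOAEL.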

[2] = tested on: iCell endothelial cells (human iPSC-derived ECs); assay: High-content imaging cytotoxicity in iCell endothelial cells, 24 h; assay type: cell-based; settings: Homo sapiens, Endothelial cell, iPSC-EC, 24 hr; for viability at 0.1 µM / activity at 0.1 µM: 0.10 µM; for minimal effective concentration: top concentration 100.00 µM
Summary of the method: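 Readouts were vehicle-normalised and fitted to a four-parameter logistic model. POD was set at one SD beyond 0.5% DMSO control means, and 100 µM was assigned when no response was seen. Cells were monolayers of iCell endothelial cells imaged after 24 h compound exposure using nuclear, mitochondrial and calcein dyes.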

[3] = 0.00 µM control = 100.00, read-out: endo.mtl.18hr
[4] = 0.00 µM control = 100.00, read-out: endo.tlps.18hr
[5] = 0.00 µM control = 100.00, read-out: endo.tta.18hr
[6] = 0.00 µM control = 100.00, read-out: endo.ttl.18hr
[7] = 0.00 µM control = 100.00, read-out: endo.cyto.24hr
[8] = 0.00 µM control = 100.00, read-out: endo.mito.24hr
[9] = 0.00 µM control = 100.00, read-out: endo.mitoint.24hr
[10] = 0.00 µM control = 100.00, read-out: endo.nma.24hr
[11] = 0.00 µM control = 100.00, read-out: endo.tc.24hrs
[12] = read-out: endo.mitoint.24hr POD

O=S(=O)(O)Oc1ccc(-c2cccc(Cl)c2)cc1Cl [4-yl PCB 11 sulfate]
activity at 0.01 µM [1, 3]: 107%
activity at 0.01 µM [1, 4]: 113%
activity at 0.01 µM [1, 5]: 174%
activity at 0.01 µM [1, 6]: 179%
activity at 0.1 µM [1, 3]: 122%
activity at 0.1 µM [1, 4]: 98.8%
activity at 0.1 µM [1, 5]: 119%
activity at 0.1 µM [1, 6]: 124%
activity at 1 µM [1, 3]: 113%
activity at 1 µM [1, 4]: 103%
activity at 1 µM [1, 5]: 124%
activity at 1 µM [1, 6]: 128%
activity at 10 µM [1, 3]: 94.3%
activity at 10 µM [1, 4]: 82.5%
activity at 10 µM [1, 5]: 91.7%
activity at 10 µM [1, 6]: 93.7%
activity at 100 µM [1, 3]: 68.5%
activity at 100 µM [1, 4]: 27.8%
activity at 100 µM [1, 5]: 26.5%
activity at 100 µM [1, 6]: 25.6%
minimal effective concentration ([1]; read-out: endo.mtl.18hr POD): 25.3 µM
minimal effective concentration ([1]; read-out: endo.tlps.18hr POD): 12.7 µM
minimal effective concentration ([1]; read-out: endo.tta.18hr POD): 21 µM
minimal effective concentration ([1]; read-out: endo.ttl.18hr POD): 25.6 µM
viability at 0.01 µM [2, 7]: 96.1%
activity at 0.01 µM [2, 8]: 96.2%
activity at 0.01 µM [2, 9]: 99.7%
activity at 0.01 µM [2, 10]: 103%
viability at 0.01 µM [2, 11]: 96.1%
viability at 0.1 µM [2, 7]: 102%
activity at 0.1 µM [2, 8]: 101%
activity at 0.1 µM [2, 9]: 90.5%
activity at 0.1 µM [2, 10]: 102%
viability at 0.1 µM [2, 11]: 102%
viability at 1 µM [2, 7]: 98%
activity at 1 µM [2, 8]: 97.8%
activity at 1 µM [2, 9]: 90.8%
activity at 1 µM [2, 10]: 103%
viability at 1 µM [2, 11]: 98%
viability at 10 µM [2, 7]: 104%
activity at 10 µM [2, 8]: 104%
activity at 10 µM [2, 9]: 87.3%
activity at 10 µM [2, 10]: 98.8%
viability at 10 µM [2, 11]: 104%
viability at 100 µM [2, 7]: 98.5%
activity at 100 µM [2, 8]: 98.6%
activity at 100 µM [2, 9]: 84.2%
activity at 100 µM [2, 10]: 99.3%
viability at 100 µM [2, 11]: 98.5%
minimal effective concentration ([2]; read-out: endo.cyto.24hr POD): 100 µM
minimal effective concentration ([2]; read-out: endo.mito.24hr POD): 100 µM
minimal effective concentration [2, 12]: 100 µM
minimal effective concentration ([2]; read-out: endo.nma.24hr POD): 100 µM
minimal effective concentration ([2]; read-out: endo.tc.24hrs POD): 100 µM

Clc1ccc(-c2ccccc2)cc1 [PCB3]
activity at 0.01 µM [1, 3]: 114%
activity at 0.01 µM [1, 4]: 108%
activity at 0.01 µM [1, 5]: 123%
activity at 0.01 µM [1, 6]: 120%
activity at 0.1 µM [1, 3]: 106%
activity at 0.1 µM [1, 4]: 111%
activity at 0.1 µM [1, 5]: 102%
activity at 0.1 µM [1, 6]: 98.7%
activity at 1 µM [1, 3]: 119%
activity at 1 µM [1, 4]: 171%
activity at 1 µM [1, 5]: 126%
activity at 1 µM [1, 6]: 123%
activity at 10 µM [1, 3]: 118%
activity at 10 µM [1, 4]: 103%
activity at 10 µM [1, 5]: 109%
activity at 10 µM [1, 6]: 111%
activity at 100 µM [1, 3]: 107%
activity at 100 µM [1, 4]: 113%
activity at 100 µM [1, 5]: 93.3%
activity at 100 µM [1, 6]: 95.4%
minimal effective concentration ([1]; read-out: endo.mtl.18hr POD): 100 µM
minimal effective concentration ([1]; read-out: endo.tlps.18hr POD): 100 µM
minimal effective concentration ([1]; read-out: endo.tta.18hr POD): 100 µM
minimal effective concentration ([1]; read-out: endo.ttl.18hr POD): 100 µM
viability at 0.01 µM [2, 7]: 101%
activity at 0.01 µM [2, 8]: 101%
activity at 0.01 µM [2, 9]: 126%
activity at 0.01 µM [2, 10]: 97.7%
viability at 0.01 µM [2, 11]: 101%
viability at 0.1 µM [2, 7]: 100%
activity at 0.1 µM [2, 8]: 101%
activity at 0.1 µM [2, 9]: 109%
activity at 0.1 µM [2, 10]: 98%
viability at 0.1 µM [2, 11]: 100%
viability at 1 µM [2, 7]: 107%
activity at 1 µM [2, 8]: 107%
activity at 1 µM [2, 9]: 104%
activity at 1 µM [2, 10]: 95.8%
viability at 1 µM [2, 11]: 107%
viability at 10 µM [2, 7]: 106%
activity at 10 µM [2, 8]: 105%
activity at 10 µM [2, 9]: 100%
activity at 10 µM [2, 10]: 94.8%
viability at 10 µM [2, 11]: 106%
viability at 100 µM [2, 7]: 105%
activity at 100 µM [2, 8]: 106%
activity at 100 µM [2, 9]: 102%
activity at 100 µM [2, 10]: 95.7%
viability at 100 µM [2, 11]: 105%
minimal effective concentration ([2]; read-out: endo.cyto.24hr POD): 100 µM
minimal effective concentration ([2]; read-out: endo.mito.24hr POD): 100 µM
minimal effective concentration [2, 12]: 100 µM
minimal effective concentration ([2]; read-out: endo.nma.24hr POD): 100 µM
minimal effective concentration ([2]; read-out: endo.tc.24hrs POD): 100 µM
